Measured values as given in patent US11214594B2, “Antimicrobial peptide having synergistic antibacterial effect with antibiotics on multidrug resistant bacteria, and use thereof” (priority 2016, dated 2022).
In brackets after ≈: the same amount, converted by molar mass. Where a SMILES comes first, the peptide text is derived from it.

How the values were obtained:
E. coli [1] = test: microbe, parasite or virus in culture; assay type: cell-based, Escherichia coli; details: 16 h
How it was run: (§1)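 Each strain is brought to 2×10^6 CFU in nutrient-sufficient Mueller-Hinton medium and dispensed into wells. Peptide solutions, stepwise diluted 2:1 in the same medium, are then added. The minimal concentration preventing growth gives the MIC.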

MDREC 1229 [2] = test: microbe, parasite or virus in culture; assay type: cell-based, Escherichia coli
How it was run: as §1

MDRAB 12036 = assay type: cell-based, Acinetobacter baumannii
How it was run: as §1

MDRST 8007 = test: Minimal inhibitory concentration (MIC), single agent; assay type: cell-based, Salmonella typhimurium; details: agent alone
How it was run: as §1

B. subtilis = test: microbe, parasite or virus in culture; assay type: cell-based, Bacillus subtilis
How it was run: as §1

S. aureus = test: microbe, parasite or virus in culture; assay type: cell-based, Staphylococcus aureus
How it was run: as §1

E. coli [3] = test: MIC of antibiotic during combined treatment with antimicrobial peptide; assay type: cell-based, Escherichia coli; details: for Antibiotic MIC, Erythromycin / Antibiotic MIC, Linezolid / Antibiotic MIC, Vancomycin: E. coli
How it was run: (§2)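 Antibiotic diluted in MH medium, dispensed per well with peptide; setup repeated with roles reversed; MIC read per combination.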

MDREC 1229 [4] = test: as above; assay type: cell-based, Escherichia coli
How it was run: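 Antibiotic MIC came from antibiotic dilutions added to bacteria (2×10^6 CFU/ml, MH medium) already combined with peptide serially diluted 2:1 from its own MIC. Swapping the roles of the two agents gave the peptide MIC.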

A. baumannii = test: as above; assay type: cell-based, Acinetobacter baumannii
How it was run: as §2

[5] = peptide treatment concentration 1 μg/ml
[6] = peptide treatment concentration 2 μg/ml
[7] = peptide treatment concentration 4 μg/ml
[8] = peptide treatment concentration 6 μg/ml
[9] = peptide treatment concentration 8 μg/ml
[10] = peptide treatment concentration 16 μg/ml
[11] = peptide treatment concentration 32 μg/ml
[12] = peptide treatment concentration 64 μg/ml
[13] = A. baumannii, combined with peptide at 1 μg/ml

CC[C@H](C)[C@H](NC(=O)[C@H](CCCCN)NC(=O)[C@H](Cc1c[nH]c2ccccc12)NC(=O)[C@@H](N)CCCNC(=N)N)C(=O)N[C@@H](Cc1ccccc1)C(=O)N[C@@H](CCCCN)C(=O)N[C@@H](CCCCN)C(=O)N[C@H](C(=O)N1CCC[C@H]1C(=O)N[C@@H](CCCCN)C(=O)N[C@@H](Cc1ccccc1)C(=O)N[C@@H](CC(C)C)C(=O)N[C@@H](Cc1c[nH]cn1)C(=O)N[C@@H](CCC(=O)O)C(=O)N[C@@H](C)C(=O)N[C@@H](CCCCN)C(=O)N[C@@H](CCCCN)C(=O)N[C@@H](Cc1ccccc1)C(N)=O)[C@@H](C)CC [PapMA-11, RWK IFK KIP KFL HEA KKF-NH2] (H-RWKIFKKIPKFLHEAKKF-NH2; N-terminus assumed)
Minimal inhibitory concentration MIC (E. coli [1]): 64 µg/mL (≈ 27.3 µM) | Minimal inhibitory concentration MIC (MDREC 1229 [2]): 64 µg/mL (≈ 27.3 µM) | Peptide MIC, peptide alone (MDREC 1229 [2]): 64 µg/mL | Minimal inhibitory concentration MIC (MDRAB 12036): 64 µg/mL (≈ 27.3 µM) | Minimal inhibitory concentration MIC (MDRST 8007): 64 µg/mL (≈ 27.3 µM) | Minimal inhibitory concentration MIC (B. subtilis): >128 µg/mL | Minimal inhibitory concentration MIC (S. aureus): >128 µg/mL | Synergistic effect of antibacterial activity with existing antibiotics compared with PapMA-1 (E. coli [3]; E. coli and MDREC1229): level similar to that of the PapMA-1 peptide | Antibiotic MIC, Erythromycin (E. coli [3]; erythromycin combined with peptide at 1 μg/ml): 64 µg/mL | Antibiotic MIC, Erythromycin (E. coli [3]; erythromycin combined with peptide at 2 μg/ml): 64 µg/mL | Antibiotic MIC, Erythromycin (E. coli [3]; erythromycin combined with peptide at 4 μg/ml): 16 µg/mL | Antibiotic MIC, Erythromycin (E. coli [3]; erythromycin combined with peptide at 6 μg/ml): 4 µg/mL | Antibiotic MIC, Erythromycin (E. coli [3]; erythromycin combined with peptide at 8 μg/ml): 1 µg/mL | Antibiotic MIC, Erythromycin (E. coli [3]; erythromycin combined with peptide at 16 μg/ml): 0.25 µg/mL | Antibiotic MIC, Erythromycin (E. coli [3]; erythromycin combined with peptide at 32 μg/ml): 0.125 µg/mL | Antibiotic MIC, Erythromycin (E. coli [3]; erythromycin combined with peptide at 64 μg/ml): 0 µg/mL | Antibiotic MIC, Linezolid (E. coli [3]; linezolid combined with peptide at 1 μg/ml): >128 µg/mL | Antibiotic MIC, Linezolid (E. coli [3]; linezolid combined with peptide at 2 μg/ml): 128 µg/mL | Antibiotic MIC, Linezolid (E. coli [3]; linezolid combined with peptide at 4 μg/ml): 128 µg/mL | Antibiotic MIC, Linezolid (E. coli [3]; linezolid combined with peptide at 6 μg/ml): 32 µg/mL | Antibiotic MIC, Linezolid (E. coli [3]; linezolid combined with peptide at 8 μg/ml): 32 µg/mL | Antibiotic MIC, Linezolid (E. coli [3]; linezolid combined with peptide at 16 μg/ml): 16 µg/mL | Antibiotic MIC, Linezolid (E. coli [3]; linezolid combined with peptide at 32 μg/ml): 8 µg/mL | Antibiotic MIC, Linezolid (E. coli [3]; linezolid combined with peptide at 64 μg/ml): 0 µg/mL | Antibiotic MIC, Vancomycin (E. coli [3]; vancomycin combined with peptide at 1 μg/ml): >128 µg/mL | Antibiotic MIC, Vancomycin (E. coli [3]; vancomycin combined with peptide at 2 μg/ml): >128 µg/mL | Antibiotic MIC, Vancomycin (E. coli [3]; vancomycin combined with peptide at 4 μg/ml): >128 µg/mL | Antibiotic MIC, Vancomycin (E. coli [3]; vancomycin combined with peptide at 6 μg/ml): 32 µg/mL | Antibiotic MIC, Vancomycin (E. coli [3]; vancomycin combined with peptide at 8 μg/ml): 16 µg/mL | Antibiotic MIC, Vancomycin (E. coli [3]; vancomycin combined with peptide at 16 μg/ml): 8 µg/mL | Antibiotic MIC, Vancomycin (E. coli [3]; vancomycin combined with peptide at 32 μg/ml): 4 µg/mL | Antibiotic MIC, Vancomycin (E. coli [3]; vancomycin combined with peptide at 64 μg/ml): 0 µg/mL | Antibiotic MIC, Erythromycin (MDREC 1229 [4]; [5]): 128 µg/mL | Antibiotic MIC, Linezolid (MDREC 1229 [4]; [5]): >128 µg/mL | Antibiotic MIC, Vancomycin (MDREC 1229 [4]; [5]): >128 µg/mL | Antibiotic MIC, Erythromycin (MDREC 1229 [4]; [6]): 64 µg/mL | Antibiotic MIC, Linezolid (MDREC 1229 [4]; [6]): >128 µg/mL | Antibiotic MIC, Vancomycin (MDREC 1229 [4]; [6]): >128 µg/mL | Antibiotic MIC, Erythromycin (MDREC 1229 [4]; [7]): 16 µg/mL | Antibiotic MIC, Linezolid (MDREC 1229 [4]; [7]): 128 µg/mL | Antibiotic MIC, Vancomycin (MDREC 1229 [4]; [7]): >128 µg/mL | Antibiotic MIC, Erythromycin (MDREC 1229 [4]; [8]): 8 µg/mL | Antibiotic MIC, Linezolid (MDREC 1229 [4]; [8]): 128 µg/mL | Antibiotic MIC, Vancomycin (MDREC 1229 [4]; [8]): >128 µg/mL | Antibiotic MIC, Erythromycin (MDREC 1229 [4]; [9]): 4 µg/mL | Antibiotic MIC, Linezolid (MDREC 1229 [4]; [9]): 32 µg/mL | Antibiotic MIC, Vancomycin (MDREC 1229 [4]; [9]): 128 µg/mL | Antibiotic MIC, Erythromycin (MDREC 1229 [4]; [10]): 1 µg/mL | Antibiotic MIC, Linezolid (MDREC 1229 [4]; [10]): 16 µg/mL | Antibiotic MIC, Vancomycin (MDREC 1229 [4]; [10]): 16 µg/mL | Antibiotic MIC, Erythromycin (MDREC 1229 [4]; [11]): 0.5 µg/mL | Antibiotic MIC, Linezolid (MDREC 1229 [4]; [11]): 8 µg/mL | Antibiotic MIC, Vancomycin (MDREC 1229 [4]; [11]): 8 µg/mL | Antibiotic MIC, Erythromycin (MDREC 1229 [4]; [12]): 0 µg/mL | Antibiotic MIC, Linezolid (MDREC 1229 [4]; [12]): 0 µg/mL | Antibiotic MIC, Vancomycin (MDREC 1229 [4]; [12]): 0 µg/mL | Synergistic effect of antibacterial activity with existing antibiotics compared with PapMA-1 (A. baumannii; A. baumannii and MDRAB 12035): level similar to that of PapMA-1 peptide | Antibiotic MIC, Erythromycin (A. baumannii; [13]): 32 µg/mL | Antibiotic MIC, Linezolid (A. baumannii; [13]): 128 µg/mL | Antibiotic MIC, Vancomycin (A. baumannii; [13]): >128 µg/mL
